Test [1] concerns the target DNA gyrase. On the set-up: method as in PMID 31711767. The following applies: cited from earlier work.
The subject of test [2] is A. flavus. As to the kind of experiment: Antifungal MIC assay, 2-fold serial dilution. It counts as cell-based, Aspergillus flavus.
Test [3] relates to C. albicans. The experiment in a line: Antifungal MIC assay, 2-fold serial dilution. It counts as cell-based, Candida albicans.
Test [4] relates to tested fungal species. As to the kind of experiment: MIC summarised over the tested fungal species (abstract). It counts as cell-based. The following applies: range over tested fungal species.
Test [5] relates to A. flavus. The experiment in a line: Modified disk diffusion, inhibition zone. The following applies: A. flavus (fungi). In general terms: In agar diffusion tests the substance spreads into inoculated agar from a disc or well.
In test [6] the test system is A. flavus and C. albicans. As to the kind of experiment: Disk diffusion, inhibition zones summarised over the fungal species. The following applies: against A. flavus and C. albicans.
Test [7] relates to Gram-positive and Gram-negative bacterial strains. On the set-up: method as in ref 29 = [29]; Ghaly M. A.; El-Bendary E. R.; Shehata I. A.; Bayomi S. M.; Habib E. Synthesis, antimicrobial activity, DNA-binding affinity and molecular docking of certain 1, 2, 4-triazolo [1, 5-a] pyrimidines. The following applies: cited from earlier work.
Test [8] deals with DNA, Gram-positive strains. On the set-up: method as in ref 29 = [29]; Ghaly M. A.; El-Bendary E. R.; Shehata I. A.; Bayomi S. M.; Habib E. Synthesis, antimicrobial activity, DNA-binding affinity and molecular docking of certain 1, 2, 4-triazolo [1, 5-a] pyrimidines. The following applies: cited from earlier work.
Test [9] addresses DNA, Gram-negative strains. On the set-up: method as in ref 29 = [29]; Ghaly M. A.; El-Bendary E. R.; Shehata I. A.; Bayomi S. M.; Habib E. Synthesis, antimicrobial activity, DNA-binding affinity and molecular docking of certain 1, 2, 4-triazolo [1, 5-a] pyrimidines. The following applies: cited from earlier work.
For test [10], the target named is S. aureus topoisomerase IV. On the set-up: method as in ref 44 (a number printed in a supplementary file, which may have a reference list of its own: not looked up in the article's list). The following applies: internal standard value given in the method; cited from earlier work.

Values after ≈ are worked out from the molar mass of the structure shown. Like-named read-outs stand apart in the source and are kept apart here. Bounds are passed on as bounds.

What is called IC50 is the point on the concentration scale where inhibition reaches its midpoint. Take `O=C(NNC(=O)c1c[nH]c2ncnn2c1=O)c1ccccc1` [Compound IV]: the IC50 in [1] is 680 nM.

For orientation: MIC means the lowest concentration found to suppress growth. Regarding `OC(Cn1cncn1)(Cn1cncn1)c1ccc(F)cc1F` [Fluconazole, reference compound], the MIC in [2] was 11.50 ± 1 µM (≈ 3.52 µg/mL); in test [2] (Aspergillus flavus, read-out: MIC) it was 11.5 µM (≈ 3.52 µg/mL); in test [3], 17.50 ± 1 µM (≈ 5.36 µg/mL); in test [3] (Candida albicans, read-out: MIC) it was 17.5 µM (≈ 5.36 µg/mL); in [4] it was 11.5 to 17.5 µM (≈ 3.52 to 5.36 µg/mL). The “Inhibition Zone (IZ) Diameter” value in test [5] turned out to be 40 mm/mL; in test [6], 40 mm.

As for `COc1ccc(CCc2nc3[nH]cc(C(=O)NN)c(=O)n3n2)cc1OC` [IIIa], the MIC in test [7] is at least 2 µg/mL. In addition, the “IC50, DNA displacement experiment” value is 61 µg/mL (≈ 170 µM) in test [8] and 40 µg/mL (≈ 112 µM) in test [9].

As for `NNC(=O)c1c[nH]c2nc(N3CCCC3)nn2c1=O` [IIIb], the MIC in test [7] was at least 2 µg/mL. Moreover, the entries for the “IC50, DNA displacement experiment” value in test [8] and in test [9] were 61 µg/mL (≈ 232 µM) and 40 µg/mL (≈ 152 µM), respectively.

As for `CO[C@@H]1[C@@H](OC(N)=O)[C@@H](O)[C@H](Oc2ccc3c(O)c(NC(=O)c4ccc(O)c(CC=C(C)C)c4)c(=O)oc3c2C)OC1(C)C` [Novobiocin], the half-maximal inhibitory concentration (IC50) in test [10] was 26.7 µM.

These data come from paper PMC11603275, “Synthesis and Antimicrobial Evaluation of New 1,2,4-Triazolo[1,5-a]pyrimidine-Based Derivatives as Dual Inhibitors of Bacterial DNA Gyrase and DHFR” (ACS Omega, 2024).
